In the METLIN SMRT retention time set (Domingo-Almenara et al. 2019):

Assay: gradient 5% acetonitrile 3 min, to 50% in 2 min, to 85% in 15 min, held 3 min, 100 µL/min
Settings: column: Zorbax Extend-C18 2.1 x 50 mm; eluents: water / acetonitrile, 0.1% formic acid
Procedure, shortened: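 The mobile phases were water and acetonitrile, each with 0.1% formic acid, pumped at 100 μL/min through a Zorbax Extend-C18 column (2.1 × 50 mm, 1.8 μm). Pure standards were injected as mixtures of ~100 molecules and detected by a quadrupole time-of-flight mass spectrometer in positive and negative ionization mode. Retention time came from computationally picked adduct peaks, each inspected by hand.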

Compound | RP-LC retention time [s]
CCN1CCn2cc(S(=O)(=O)Nc3cc(F)cc(F)c3)cc2C1=O | 755
CC(C)CN1CCN(C(=O)c2cn(-c3cc(N4CCC(C)CC4)ncn3)cn2)CC1 | 663
CC1=C(c2ccc(F)cc2)S(=O)(=O)N=C1N1CCCN(C(=O)C2CCC2)CC1 | 790
O=C(NCc1cccc(C(F)(F)F)c1)C1(CCO)CCN(c2ncccn2)C1 (configuration not stated) | 669
COc1ccc(C(C)NC(=O)C2CCN(c3cncnc3N3CCOCC3)CC2)cc1 (configuration not stated) | 601
Cc1nnc(-c2nnc(N3CCN(c4ccccn4)CC3)c3ccccc23)o1 | 611
Cc1noc(C2(NC(=O)C3CCC3)CCCCC2)n1 | 745
Cc1ccc(-c2noc(Cc3nnc(-c4cc(F)cc(F)c4)o3)n2)cc1C | 1170
CC(C)C(=O)Nc1ccc(CCc2nc3ccc(C(=O)NCc4ccco4)cc3[nH]2)cc1 | 635
COCCNC(=O)C1CCN(c2cncnc2N2CCCCC2)CC1 | 588
Cc1nn(C)c(C)c1CCN(C)C(=O)C1Cn2cccc2C(=O)N1CC(C)C (configuration not stated) | 642
O=S(=O)(c1ccc2nc(N3CCN(Cc4ccc5c(c4)OCO5)CC3)cnc2c1)N1CCCCC1 | 728
CCc1ccc(Oc2cc(N3CCC(C(=O)NC4CCCCCC4)CC3)ncn2)cc1 | 1110
CC1CCCN(C(=O)Cc2nnc3cc(-c4nc(C5CC5)no4)ccn23)C1 (configuration not stated) | 759
CCn1c(SC)nnc1-c1nn(C)c2c1CN(C(=O)C1CCCCC1)CC2 | 815
CN(C)c1ccc(C(=O)N2CCCC2COc2ccc(C(=O)N3CCCC3)cc2)cc1 (configuration not stated) | 748
CC(=O)NCC(=O)N1[C@@H]2CC[C@H]1c1ccc(Nc3ncc(C(F)(F)F)c(NC4CCC4)n3)cc12 | 716
O=C(NCCC1CCN(C(=O)Nc2ccc(F)cc2F)CC1)c1ccoc1 | 726

Continued, values first:

RP-LC retention time [s] | Compound
838 | CCSc1nnnn1-c1ccc(NC(=O)c2ccc3nnsc3c2)cc1
899 | CCC(C(=O)N1CCc2ccccc21)n1cnc2nc3c(cc2c1=O)CCCC3 (configuration not stated)
715 | COc1ccc(CNC(=O)CN2CCN(Cc3ccccc3C)C(=O)C2=O)cc1
648 | Cc1ccc(CNC(=O)c2ccc3c(c2)CN(Cc2scnc2C)CCO3)cc1
884 | Cc1ccccc1NC(=O)CN1C(=O)CCc2cc(Br)ccc21
1110 | COc1ccc(-n2c(=O)c(C(=O)NCC3CC3)c(O)c3cccnc32)cc1
1070 | Cc1ccc(NS(=O)(=O)c2cc3n(c2)CCN(C)C3=O)c(F)c1
711 | CCn1cc(C)c(C(=O)O)c1CC(=O)NCCN1CCCc2ccccc21
783 | CC1CCC2(CC1)NC(=O)N(CC(=O)Nc1ccc3c(c1)OCCO3)C2=O (configuration not stated)
1240 | CC(C)Cc1csc(-c2csc(S(=O)(=O)NCc3ccc(Cl)cc3)c2)n1
608 | COc1ccc(C(=O)Nc2c(-c3ccccc3)nc3ccccn23)cc1OC
808 | CN(CC1CCCO1)S(=O)(=O)c1ccc(C(=O)N2CCc3ccccc3C2)cc1 (configuration not stated)
629 | Cc1cccc2sc(N(CCCN(C)C)C(=O)c3ccccc3Br)nc12
639 | O=C(Nc1cccc2ccccc12)N1CCOCC1
974 | CCOC(=O)c1ccccc1NC(=O)CSc1ccc(-c2ccc3c(c2)OCO3)nn1
747 | CN(C1CCc2nn(CC3CC3)c(=O)n2CC1)S(=O)(=O)Cc1ccccc1 (configuration not stated)
1060 | CCOc1ccc(NC(=O)Nc2nccn(-c3cc(Cl)ccc3C)c2=O)cc1
782 | O=C(O)c1cccc2c1CCN2C(=O)Nc1ccc(F)cc1
733 | CCOc1cc(=O)n2c(c1C(=O)NCCCN1CCCc3ccccc31)CCCCC2
